Legend:
[1] = system: B16 melanoma cells; assay: B16 melanoma lung metastases in mice treated with TA99 antibody, with or without ZM; type: in vivo; conditions: Wt mice, 200 ug TA99 on day +1 plus ZM 10 mg/kg IP twice a day from Day 0; Day +15 (FIG. 17)
Protocol: Wt and A2a receptor null mice received 1 million B16 melanoma cells IV on day 0. Control mice received not treatment. Treated mice received 200 ug IP of TA99 antibody on days 0, 2, 5. The mice were sacrificed on Day 15 and lung mets were counted.
Wt mice received 1 million B16 melanoma cells on Day 0. On day +1 they received either no treatment or 200 ug of TA99 antibody. Zm treated mice received 10 mg/kg IP of ZM twice a day beginning on Day 0 and continuing for the remainder of the experiment. The mice were evaluated on Day +15.
Wt and A2a receptor null mice received 1 million B16 melanoma cells IV on day 0. Control mice received not treatment. Treated mice received 200 ug IP of TA99 antibody on days 0, 2, 5. The mice were sacrificed on Day 15 and lung metastases were counted. […] Eliminating A2a receptor activity in the mice reduced melanoma metastases by approximately 50% and treatment with the antibody reduced metastases by approximately 60%. However, when knock out mice are treated with the antibody, the level of tumor metastases dropped by approximately 80% when compared to untreated wild type, and by 50% or more when compared to either the knock out or antibody treated wild type mice.

[2] = system: LAG-3; assay: LAG-3 upregulation in A.E7 T cells (ionomycin or PMA stimulation; CsA); type: cell-based; conditions: ionomycin alone (FIG. 3c)
Excerpt: FIGS. 3(a)-(f) are graphs showing that A2a receptor signaling promotes the upregulation of LAG-3^+ in vitro. […] Data are representative of 3 independent experiments. 3(c) is a graph of LAG3 upregulation in A.E7 T cells following stimulation with ionomycin or PMA. 3(d) is an image of representative Western blots for phosphor-ERK and total ERK (top and bottom respectively). […] Data are representative of 3 independent experiments. 3(e) is an image of representative Western blots for junB, and actin (top and bottom, respectively). […] Data are representative of 3 independent experiments. 3(f) is an image of representative EMSA for AP-1. […] Data are representative of 3 independent experiments.

| SMILES | reduction of average lung metastases, antibody in combination with ZM [1] | LAG-3 upregulation [2] |
| --- | --- | --- |
| Nc1nc(NCCc2ccc(O)cc2)nc2nc(-c3ccco3)nn12 [ZM, 4-(2-[7-amino-2-(2-furyl)[1,2,4]triazolo[2,3-a][1,3,5]triazin-5-ylamino]ethyl)phenol] | approximately 80% |  |
| C[C@H](CCC(=O)O)C[C@H](C)C[C@H](C)C(=O)/C=C(\O)[C@H](C)C[C@H](C)C/C=C/[C@@H](C)[C@@H](O)[C@@H](C)[C@@H](O)C[C@@H]1CC[C@@](C)([C@H]2CC[C@@](C)([C@@H](C)O)O2)O1 [ionomycin] |  | markedly upregulated |
